The record followed here is paper PMC9822402, “Investigation on Hydrazonobenzenesulfonamides as Human Carbonic Anhydrase I, II, IX and XII Inhibitors” (Molecules, 2022).

In one experiment the target is T1, hCA II (Homo sapiens, UniProt P00918).
T1 construct: gene CA2; recombinant, obtained in-house
In words: stopped-flow CO2 hydrase assay. Type of experiment: biochemical. The note with it: read-out: KI (nM) ^1 / CAII.

The target of another experiment is T2, hCA I (Homo sapiens, UniProt P00915).
T2 construct: gene CA1; recombinant, obtained in-house
T2 sequence (P00915 2-261): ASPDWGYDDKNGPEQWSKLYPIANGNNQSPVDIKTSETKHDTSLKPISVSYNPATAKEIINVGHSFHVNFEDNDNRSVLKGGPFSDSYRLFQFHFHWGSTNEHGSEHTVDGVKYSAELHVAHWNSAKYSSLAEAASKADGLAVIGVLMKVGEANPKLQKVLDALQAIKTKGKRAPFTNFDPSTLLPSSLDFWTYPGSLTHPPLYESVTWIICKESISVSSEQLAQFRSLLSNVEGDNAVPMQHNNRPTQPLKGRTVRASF
As to the kind of experiment: stopped-flow CO2 hydrase assay. In kind it is biochemical. Conditions: read-out: KI (nM) ^1 / CAI.

In the case of `COc1ccc(/C=N/NC(=O)C2CCN(C(=O)c3ccc(S(N)(=O)=O)cc3)CC2)cc1` [compound 9, (E)-4-(4-(2-(4-methoxybenzylidene)hydrazinecarbonyl)piperidine-1-carbonyl)benzenesulfonamide], the Ki is 4.48 nM on hCA II and 389 nM on hCA I.
With `NS(=O)(=O)c1ccc(C(=O)N2CCC(C(=O)N/N=C/c3ccc(Cl)cc3Cl)CC2)cc1` [compound 25, (E)-4-(4-(2-(2,4-dichlorobenzylidene)hydrazinecarbonyl)piperidine-1-carbonyl)benzenesulfonamide], the Ki at hCA II turned out to be 6.65 nM; at hCA I, 336 nM.
With `COc1ccc(/C=N/NC(=O)C2CCN(C(=O)c3ccc(S(N)(=O)=O)cc3)CC2)c(OC)c1` [compound 10, (E)-4-(4-(2-(2,4-dimethoxybenzylidene)hydrazinecarbonyl)piperidine-1-carbonyl)benzenesulfonamide], the values for the Ki on hCA II and at hCA I were 160 nM and 1890 nM, respectively.
For `NS(=O)(=O)c1ccc(C(=O)N2CCC(C(=O)N/N=C/c3cccc([N+](=O)[O-])c3)CC2)cc1` [compound 21, (E)-4-(4-(2-(3-nitrobenzylidene)hydrazinecarbonyl)piperidine-1-carbonyl)benzenesulfonamide], in that order: 46.2 nM and 1820 nM.
In the case of `COc1ccc(/C=N/NC(=O)C2CCN(C(=O)c3ccc(S(N)(=O)=O)cc3)CC2)cc1OC` [compound 11, (E)-4-(4-(2-(3,4-dimethoxybenzylidene)hydrazinecarbonyl)piperidine-1-carbonyl)benzenesulfonamide], the Ki is 55.1 nM on hCA II and 344 nM on hCA I.
`COc1ccccc1/C=N/NC(=O)C1CCN(C(=O)c2ccc(S(N)(=O)=O)cc2)CC1` [compound 7, (E)-4-(4-(2-(2-methoxybenzylidene)hydrazinecarbonyl)piperidine-1-carbonyl)benzenesulfonamide]: the Ki is 2.94 nM on hCA II and 45.5 nM at hCA I.
Regarding `NS(=O)(=O)c1ccc(C(=O)N2CCC(C(=O)N/N=C/c3cccc(Cl)c3)CC2)cc1` [compound 24, (E)-4-(4-(2-(3-chlorobenzylidene)hydrazinecarbonyl)piperidine-1-carbonyl)benzenesulfonamide], the Ki at hCA II is 55.4 nM; on hCA I it was 398 nM.
Turning to `COc1ccc(/C=N/NC(=O)C2CCN(C(=O)c3ccc(S(N)(=O)=O)cc3)CC2)c(Br)c1OC` [compound 15, (E)-4-(4-(2-(2-bromo-3,4-dimethoxybenzylidene)hydrazinecarbonyl)piperidine-1-carbonyl)benzenesulfonamide], the values for the Ki on hCA II and at hCA I were 65.5 nM and 1540 nM, respectively.
As to `NS(=O)(=O)c1ccc(C(=O)N2CCC(C(=O)N/N=C/c3cc(Cl)ccc3Cl)CC2)cc1` [compound 26, (E)-4-(4-(2-(2,5-dichlorobenzylidene)hydrazinecarbonyl)piperidine-1-carbonyl)benzenesulfonamide], the Ki at hCA II was 3.64 nM; at hCA I it was 800 nM.
`COc1cccc(/C=N/NC(=O)C2CCN(C(=O)c3ccc(S(N)(=O)=O)cc3)CC2)c1` [compound 8, (E)-4-(4-(2-(3-methoxybenzylidene)hydrazinecarbonyl)piperidine-1-carbonyl)benzenesulfonamide]: the Ki at hCA II turned out to be 44.3 nM; at hCA I, 382 nM.
For `COc1c(/C=N/NC(=O)C2CCN(C(=O)c3ccc(S(N)(=O)=O)cc3)CC2)ccc2ccccc12` [compound 17, (E)-4-(4-(2-((1-methoxynaphthalen-2-yl)methylene)hydrazinecarbonyl)piperidine-1-carbonyl)benzenesulfonamide], the Ki worked out at 25.2 nM on hCA II and 334 nM at hCA I.
For the molecule `Cc1ccc(/C=N/NC(=O)C2CCN(C(=O)c3ccc(S(N)(=O)=O)cc3)CC2)cc1` [compound 6, (E)-4-(4-(2-(4-methylbenzylidene)hydrazinecarbonyl)piperidine-1-carbonyl)benzenesulfonamide], the Ki came to 5.62 nM at hCA II and 3240 nM at hCA I.
Consider `NS(=O)(=O)c1ccc(C(=O)N2CCC(C(=O)N/N=C/c3ccc(C(F)(F)F)cc3)CC2)cc1` [compound 18, (E)-4-(4-(2-(4-(trifluoromethyl)benzylidene)hydrazinecarbonyl)piperidine-1-carbonyl)benzenesulfonamide], for which the Ki worked out at 37.4 nM on hCA II and 1750 nM at hCA I.
Take `NS(=O)(=O)c1ccc(C(=O)N2CCC(C(=O)N/N=C/c3ccc4ccccc4c3)CC2)cc1` [compound 16, (E)-4-(4-(2-((naphthalen-2-yl)methylene)hydrazinecarbonyl)piperidine-1-carbonyl)benzenesulfonamide]: the Ki at hCA II was determined as 209 nM; on hCA I, 4000 nM.
In the case of `NS(=O)(=O)c1ccc(C(=O)N2CCC(C(=O)N/N=C/c3ccc(F)cc3)CC2)cc1` [compound 20, (E)-4-(4-(2-(4-fluorobenzylidene)hydrazinecarbonyl)piperidine-1-carbonyl)benzenesulfonamide], the figures for the Ki at hCA II and at hCA I were 17.1 nM and 340 nM, respectively.
Turning to `NS(=O)(=O)c1ccc(C(=O)N2CCC(C(=O)N/N=C/c3c(Cl)cccc3Cl)CC2)cc1` [compound 27, (E)-4-(4-(2-(2,6-dichlorobenzylidene)hydrazinecarbonyl)piperidine-1-carbonyl)benzenesulfonamide], the Ki at hCA II worked out at 3.57 nM; at hCA I, 24.6 nM.
The corresponding values for `NS(=O)(=O)c1ccc(C(=O)N2CCC(C(=O)N/N=C/c3ccc([N+](=O)[O-])cc3)CC2)cc1` [compound 22, (E)-4-(4-(2-(4-nitrobenzylidene)hydrazinecarbonyl)piperidine-1-carbonyl)benzenesulfonamide] are 4.92 nM and 384 nM.
For the molecule `COc1cc(OC)c(OC)cc1/C=N/NC(=O)C1CCN(C(=O)c2ccc(S(N)(=O)=O)cc2)CC1` [compound 13, (E)-4-(4-(2-(2,4,5-trimethoxybenzylidene)hydrazinecarbonyl)piperidine-1-carbonyl)benzenesulfonamide], at hCA II, the Ki turned out to be 3.78 nM.
Consider `NS(=O)(=O)c1ccc(C(=O)N2CCC(C(=O)N/N=C/c3ccccc3Cl)CC2)cc1` [compound 23, (E)-4-(4-(2-(2-chlorobenzylidene)hydrazinecarbonyl)piperidine-1-carbonyl)benzenesulfonamide], for which the Ki at hCA II worked out at 6.51 nM; on hCA I, 482 nM.
The corresponding values for `NS(=O)(=O)c1ccc(C(=O)N2CCC(C(=O)N/N=C/c3ccccc3)CC2)cc1` [compound 5, (E)-4-(4-(2-benzylidenehydrazinecarbonyl)piperidine-1-carbonyl)benzenesulfonamide] are 4.41 nM and 18.5 nM.
Regarding `COc1cc(/C=N/NC(=O)C2CCN(C(=O)c3ccc(S(N)(=O)=O)cc3)CC2)cc(OC)c1OC` [compound 14, (E)-4-(4-(2-(3,4,5-trimethoxybenzylidene)hydrazinecarbonyl)piperidine-1-carbonyl)benzenesulfonamide], the Ki on hCA II amounted to 67.6 nM; at hCA I, 384 nM.
For the molecule `NS(=O)(=O)c1ccc(C(=O)N2CCC(C(=O)N/N=C/c3cccc(F)c3)CC2)cc1` [compound 19, (E)-4-(4-(2-(3-fluorobenzylidene)hydrazinecarbonyl)piperidine-1-carbonyl)benzenesulfonamide], the Ki at hCA II is 92.4 nM; at hCA I, 392 nM.
In the case of `COc1ccc(OC)c(/C=N/NC(=O)C2CCN(C(=O)c3ccc(S(N)(=O)=O)cc3)CC2)c1` [compound 12, (E)-4-(4-(2-(2,5-dimethoxybenzylidene)hydrazinecarbonyl)piperidine-1-carbonyl)benzenesulfonamide], the Ki at hCA II stood at 1.75 nM; on hCA I, 24.3 nM.
